# Values of other authors, collected in patent US20240209370A1, “METHODS OF MODULATING ALK” (SOCIETE DES PRODUITS NESTLE S.A., priority 2017, published 2024).
# Molecular target: ALK (Homo sapiens, UniProt Q9UM73)
# Conditions: effect on ALK activity or expression as listed from ctdbase, Medline or cited patents
# Chain of ALK (Q9UM73 19-1620): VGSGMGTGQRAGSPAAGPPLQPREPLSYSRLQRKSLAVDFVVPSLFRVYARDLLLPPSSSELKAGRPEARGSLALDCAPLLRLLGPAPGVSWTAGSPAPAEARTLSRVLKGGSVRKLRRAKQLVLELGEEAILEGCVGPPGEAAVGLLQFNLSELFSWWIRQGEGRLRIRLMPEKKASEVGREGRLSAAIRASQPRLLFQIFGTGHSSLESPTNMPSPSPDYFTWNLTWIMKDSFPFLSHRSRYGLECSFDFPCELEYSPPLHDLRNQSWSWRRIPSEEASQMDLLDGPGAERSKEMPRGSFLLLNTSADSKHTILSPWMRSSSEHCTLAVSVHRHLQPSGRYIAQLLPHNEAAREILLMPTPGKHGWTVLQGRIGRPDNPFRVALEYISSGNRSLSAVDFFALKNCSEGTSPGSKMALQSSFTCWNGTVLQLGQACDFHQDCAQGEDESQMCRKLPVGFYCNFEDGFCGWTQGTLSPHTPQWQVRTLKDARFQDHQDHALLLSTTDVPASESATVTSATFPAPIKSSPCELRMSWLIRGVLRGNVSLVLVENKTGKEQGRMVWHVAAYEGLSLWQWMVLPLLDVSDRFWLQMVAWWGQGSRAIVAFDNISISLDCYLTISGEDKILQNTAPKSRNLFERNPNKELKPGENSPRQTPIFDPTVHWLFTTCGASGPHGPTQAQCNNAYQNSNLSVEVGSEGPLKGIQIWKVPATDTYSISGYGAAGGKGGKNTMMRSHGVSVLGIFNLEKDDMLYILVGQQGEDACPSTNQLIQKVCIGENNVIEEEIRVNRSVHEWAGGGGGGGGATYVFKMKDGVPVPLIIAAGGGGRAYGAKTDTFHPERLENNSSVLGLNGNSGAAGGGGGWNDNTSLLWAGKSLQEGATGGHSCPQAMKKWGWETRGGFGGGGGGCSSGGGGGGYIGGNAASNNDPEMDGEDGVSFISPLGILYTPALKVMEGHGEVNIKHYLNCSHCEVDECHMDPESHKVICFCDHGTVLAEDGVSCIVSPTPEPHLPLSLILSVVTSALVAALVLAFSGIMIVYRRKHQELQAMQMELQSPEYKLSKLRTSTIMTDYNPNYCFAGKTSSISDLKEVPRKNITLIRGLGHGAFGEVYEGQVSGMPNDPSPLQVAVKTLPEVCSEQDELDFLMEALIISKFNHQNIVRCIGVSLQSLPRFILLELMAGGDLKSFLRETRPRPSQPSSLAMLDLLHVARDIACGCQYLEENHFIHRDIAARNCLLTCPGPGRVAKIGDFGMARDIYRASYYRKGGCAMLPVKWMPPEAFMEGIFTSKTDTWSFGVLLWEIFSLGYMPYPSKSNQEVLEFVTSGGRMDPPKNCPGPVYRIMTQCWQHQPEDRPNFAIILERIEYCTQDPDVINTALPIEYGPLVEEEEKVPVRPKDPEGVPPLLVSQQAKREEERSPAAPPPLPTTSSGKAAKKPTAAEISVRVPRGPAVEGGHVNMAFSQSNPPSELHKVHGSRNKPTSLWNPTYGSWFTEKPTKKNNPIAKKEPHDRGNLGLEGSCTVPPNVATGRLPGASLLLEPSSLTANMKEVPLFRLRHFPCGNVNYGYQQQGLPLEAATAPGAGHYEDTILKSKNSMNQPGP
row,Compound,Interaction Actions
1,CC(=O)N[C@@H](CS)C(=O)O [Acetylcysteine],affects activity
2,C[C@]12CCC(=O)C=C1CC[C@@H]1[C@@H]2[C@@H](O)C[C@@]2(C)[C@H]1CC[C@]2(O)C(=O)CO [hydrocortisone],suppress
3,C[C@H]1c2cccc(O)c2C(O)=C2C(=O)[C@]3(O)C(O)=C(C(N)=O)C(=O)[C@@H](N(C)C)[C@@H]3[C@@H](O)[C@@H]21 [vibramycin],inhibit
4,Cc1cc(Nc2ncc(Cl)c(Nc3ccccc3S(=O)(=O)C(C)C)n2)c(OC(C)C)cc1C1CCNCC1 [ceritinib],inhibit
5,CO[C@H]1[C@@H](OC)C[C@H](C)[C@@H](OC)C2=CC(=O)C=C(NC(=O)/C(C)=C/C=C\[C@H](OC)[C@@H](OC(N)=O)/C(C)=C/[C@@H]1C)C2=O [herbimycin],inhibit
6,O=S(=O)(O)OC[C@H]1O[C@@](COS(=O)(=O)O)(O[C@H]2O[C@H](COS(=O)(=O)O)[C@@H](OS(=O)(=O)O)[C@H](OS(=O)(=O)O)[C@H]2OS(=O)(=O)O)[C@@H](OS(=O)(=O)O)[C@@H]1OS(=O)(=O)O [sucrose octasulfate],inhibit
7,C[C@H](Cc1ccc(O)c(O)c1)[C@@H](C)Cc1ccc(O)c(O)c1 [Masoprocol],decreases activity
8,COc1cc2c(Oc3ccc(NC(=O)C4(C(=O)Nc5ccc(F)cc5)CC4)cc3F)ccnc2cc1OCCCN1CCOCC1 [foretinib],inhibit
9,CC1=C(/C=C/C(C)=C/C=C/C(C)=C/C(=O)O)C(C)(C)CCC1 [Tretinoin],decreases expression
10,CO[C@H]1C[C@@H]2CC[C@@H](C)[C@@](O)(O2)C(=O)C(=O)N2CCCC[C@H]2C(=O)O[C@H]([C@H](C)C[C@@H]2CC[C@@H](OCCO)[C@H](OC)C2)CC(=O)[C@H](C)/C=C(\C)[C@@H](O)[C@@H](OC)C(=O)[C@H](C)C[C@H](C)/C=C/C=C/C=C/1C [everolimus],inhibit
11,c1cncnc1 [pyrimidine],inhibit
12,CS(=O)(=O)CCNCc1ccc(-c2ccc3ncnc(Nc4ccc(OCc5cccc(F)c5)c(Cl)c4)c3c2)o1 [lapatinib],inhibit
13,COc1cc2nccc(Oc3ccc(NC(=O)Nc4cc(C)on4)c(Cl)c3)c2cc1OC [tivozanib],inhibit
14,Cc1cc(O)c2c(c1)C(=O)c1cc(O)cc(O)c1C2=O [emodin],inhibit
15,heparin,terminate
